For experiment [1], the target named is T1, mTORC1 (Homo sapiens, UniProt P42345+P62942).
T1 construct: endogenous in cells; host or cells: PC3 cells (human prostate adenocarcinoma)
The experiment can be described thus: Inhibition assay for mTORC1: phosphorylation of pS6K at Thr389, AlphaLISA in PC3 cells. It is filed as cell-based. As to conditions: PC3 cells, treated 24 hours, pS6K Thr389, AlphaLISA, C16 diastereomer mixtures not separated; for IC50: read-out: pIC50 mTORC1 (converted). As to the method:
(§1) The IC50s of the inhibition of mTORC1 and mTORC2 were determined in vitro by determining the phosphorylation of pS6K at position Thr389 (mTORC1 inhibition) and pAkt at Ser473 (mTORC2 inhibition). In vitro studies were performed with AlphaLISA® technology using PC3 cells (Prostate Adenocarcinoma; Human (Homo sapiens)). The cells were seeded in 96 well plates and were treated for 24 hours with the different compounds. […] All analysis were performed using GraphPad Prism 7.0 (GraphPad Software, San Diego, USA).
On the technique in general: Alpha assays give light when donor and acceptor beads are brought close together.

The target in experiment [2] is T2, mTORC2 (Homo sapiens, UniProt P42345+P62942).
T2 construct: endogenous in cells; host or cells: PC3 cells (human prostate adenocarcinoma)
T2 sequence (P62942 2-108 limits assumed, other chains not shown): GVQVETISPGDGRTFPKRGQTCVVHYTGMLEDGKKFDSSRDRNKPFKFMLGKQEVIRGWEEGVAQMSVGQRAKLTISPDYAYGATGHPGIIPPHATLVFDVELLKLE
The experiment is described as follows: Inhibition assay for mTORC2: phosphorylation of pAkt at Ser473, AlphaLISA in PC3 cells. In kind it is cell-based. As to conditions: PC3 cells, treated 24 hours, pAkt Ser473, AlphaLISA, C16 diastereomer mixtures not separated; for IC50: read-out: pIC50 mTORC2 (converted). How it is done: as §1

As for `CO[C@@H]1C[C@H](C[C@@H](C)[C@@H]2CC(=O)[C@H](C)/C=C(\C)[C@@H](O)[C@@H](OC)C(=O)[C@H](C)C[C@H](C)/C=C/C=C/C=C(\C)C(OCCO)C[C@@H]3CC[C@@H](C)[C@@](O)(O3)C(=O)C(=O)N3CCCC[C@H]3C(=O)O2)CC[C@H]1OC(=O)NCCc1ccccc1` (mixture of isomers) [Compound 1, [(1R,2R,4S)-4-[(2R)-2-[(1R,9S,12SR,15R,16E,18R,19R,21R,23S,24E,26E,28E,32SR,35R)-1,18-dihydroxy-30-(2-hydroxyethoxy)-19-methoxy-15,17,21,23,29,35-hexamethyl-2,3,10,14,20-pentaoxo-11,36-dioxa-4-azatricyclo[30.3.1.0^4,9]hexatriaconta-16,24,26,28-tetraen-1^2-yl]propyl]-2-methoxy-cyclohexyl] N-(2-phenylethyl)carbamate], the IC50 in experiment [1] was less than 0.316 nM; in experiment [2] it was more than 10000 nM. Take `COC1CC(CC(C)C2CC(=O)C(C)C=C(C)C(O)C(OC)C(=O)C(C)CC(C)C=CC=CC=C(C)C(OCCO)CC3CCC(C)C(O)(O3)C(=O)C(=O)N3CCCCC3C(=O)O2)CCC1OCCCN1CCOCC1C` (mixture of isomers) [Compound 2]: in experiment [1], the “pIC50 mTORC1” value was “A (pIC50 for mTORC1 of >9.5 as A)”. The “pIC50 mTORC2” value in experiment [2] is recorded as “A (PIC50 for mTORC2 of <5 as A)”. For the compound `COC1CC(CC(C)C2CC(=O)C(C)C=C(C)C(O)C(OC)C(=O)C(C)CC(C)C=CC=CC=C(C)C(OCCO)CC3CCC(C)C(O)(O3)C(=O)C(=O)N3CCCCC3C(=O)O2)CCC1OCCCN1CCOCC1C` (mixture of isomers) [Compound 5], the IC50 was less than 0.316 nM in experiment [1] and more than 10000 nM in experiment [2]. On to `CO[C@@H]1C[C@H](C[C@@H](C)[C@@H]2CC(=O)[C@H](C)/C=C(\C)[C@@H](O)[C@@H](OC)C(=O)[C@H](C)C[C@H](C)/C=C/C=C/C=C(\C)C(OCCO)C[C@@H]3CC[C@@H](C)[C@@](O)(O3)C(=O)C(=O)N3CCCC[C@H]3C(=O)O2)CC[C@H]1OCCCN1CCO[C@H](C)C1` (mixture of isomers) [Compound 13], for which the IC50 in experiment [1] is less than 0.316 nM.

As for `COCCOC1C[C@@H]2CC[C@@H](C)[C@@](O)(O2)C(=O)C(=O)N2CCCC[C@H]2C(=O)O[C@H]([C@H](C)C[C@@H]2CC[C@@H](OCCCN3CC4(COC4)C3)[C@H](OC)C2)CC(=O)[C@H](C)/C=C(\C)[C@@H](O)[C@@H](OC)C(=O)[C@H](C)C[C@H](C)/C=C/C=C/C=C/1C` (mixture of isomers) [Compound 26], the IC50 is less than 0.316 nM in experiment [1] and more than 10000 nM in experiment [2].

Turning to `CO[C@@H]1C[C@H](C[C@@H](C)[C@@H]2CC(=O)[C@H](C)/C=C(\C)[C@@H](O)[C@@H](OC)C(=O)[C@H](C)C[C@H](C)/C=C/C=C/C=C(\C)C(OCCCCO)C[C@@H]3CC[C@@H](C)[C@@](O)(O3)C(=O)C(=O)N3CCCC[C@H]3C(=O)O2)CC[C@H]1OCCCN1CCOCC1` (mixture of isomers) [Compound 27], the values for the IC50 in experiment [1] and in experiment [2] were less than 0.316 nM and 1000 to 10000 nM, respectively. For `CO[C@@H]1C[C@H](C[C@@H](C)[C@@H]2CC(=O)[C@H](C)/C=C(\C)[C@@H](O)[C@@H](OC)C(=O)[C@H](C)C[C@H](C)/C=C/C=C/C=C(\C)C(OCCO)C[C@@H]3CC[C@@H](C)[C@@](O)(O3)C(=O)C(=O)N3CCCC[C@H]3C(=O)O2)CC[C@H]1OCCCN1CCN(C)CC1` (mixture of isomers) [Compound 34] the same measures were 0.316 to 3.16 nM and more than 10000 nM. For `COCCOC1C[C@@H]2CC[C@@H](C)[C@@](O)(O2)C(=O)C(=O)N2CCCC[C@H]2C(=O)O[C@H]([C@H](C)C[C@@H]2CC[C@@H](OCCCN3CCN(C(C)C)CC3)[C@H](OC)C2)CC(=O)[C@H](C)/C=C(\C)[C@@H](O)[C@@H](OC)C(=O)[C@H](C)C[C@H](C)/C=C/C=C/C=C/1C` (mixture of isomers) [Compound 39] the same measures were less than 0.316 nM and 1000 to 10000 nM.

For `COCCOC1CC2CCC(C)C(O)(O2)C(=O)C(=O)N2CCCCC2C(=O)OC(C(C)CC2CCC(OCCCN3CCOCC3C)C(OC)C2)CC(=O)C(C)C=C(C)C(O)C(OC)C(=O)C(C)CC(C)C=CC=CC=C1C` (mixture of isomers) [Compound 42], the IC50 is less than 0.316 nM in experiment [1] and 1000 to 10000 nM in experiment [2].

For `COCCOC1C[C@@H]2CC[C@@H](C)[C@@](O)(O2)C(=O)C(=O)N2CCCC[C@H]2C(=O)O[C@H]([C@H](C)C[C@@H]2CC[C@@H](OCCN3CC4(COC4)C3)[C@H](OC)C2)CC(=O)[C@H](C)/C=C(\C)[C@@H](O)[C@@H](OC)C(=O)[C@H](C)C[C@H](C)/C=C/C=C/C=C/1C` (mixture of isomers) [Compound 44], the figures for the IC50 in experiment [1] and in experiment [2] were less than 0.316 nM and 1000 to 10000 nM, respectively.

`CO[C@@H]1C[C@H](C[C@@H](C)[C@@H]2CC(=O)[C@H](C)/C=C(\C)[C@@H](O)[C@@H](OC)C(=O)[C@H](C)C[C@H](C)/C=C/C=C/C=C(\C)C(OC[C@@H](C)O)C[C@@H]3CC[C@@H](C)[C@@](O)(O3)C(=O)C(=O)N3CCCC[C@H]3C(=O)O2)CC[C@H]1OCCO` (mixture of isomers) [Compound 49]: the IC50 in experiment [1] was 0.316 to 3.16 nM; in experiment [2], more than 10000 nM. For `CO[C@@H]1C[C@H](C[C@@H](C)[C@@H]2CC(=O)[C@H](C)/C=C(\C)[C@@H](O)[C@@H](OC)C(=O)[C@H](C)C[C@H](C)/C=C/C=C/C=C(\C)C(OCCO)C[C@@H]3CC[C@@H](C)[C@@](O)(O3)C(=O)C(=O)N3CCCC[C@H]3C(=O)O2)CC[C@H]1OCCN1CCCCC1` (mixture of isomers) [Compound 61], in that order: 0.316 to 3.16 nM and more than 10000 nM.

As for `CO[C@@H]1C[C@H](C[C@@H](C)[C@@H]2CC(=O)[C@H](C)/C=C(\C)[C@@H](O)[C@@H](OC)C(=O)[C@H](C)C[C@H](C)/C=C/C=C/C=C(\C)C(OCCCO)C[C@@H]3CC[C@@H](C)[C@@](O)(O3)C(=O)C(=O)N3CCCC[C@H]3C(=O)O2)CC[C@H]1OCCCc1ccccc1` (mixture of isomers) [Compound 67, (1R,9S,12SR,15R,16E,18R,19R,21R,23S,24E,26E,28E,32SR,35R)-1,18-dihydroxy-30-(3-hydroxypropoxy)-19-methoxy-12-[(1R)-2-[(1S,3R,4R)-3-methoxy-4-(3-phenylpropoxy)cyclohexyl]-1-methyl-ethyl]-15,17,21,23,29,35-hexamethyl-11,36-dioxa-4-azatricyclo[30.3.1.0^4,9]hexatriaconta-16,24,26,28-tetraene-2,3,10,14,20-pentone], the IC50 is 0.316 to 3.16 nM in experiment [1] and more than 10000 nM in experiment [2]. For the compound `COCCOC1C[C@@H]2CC[C@@H](C)[C@@](O)(O2)C(=O)C(=O)N2CCCC[C@H]2C(=O)O[C@H]([C@H](C)C[C@@H]2CC[C@@H](OCCCN3CCC(C(C)(C)O)CC3)[C@H](OC)C2)CC(=O)[C@H](C)/C=C(\C)[C@@H](O)[C@@H](OC)C(=O)[C@H](C)C[C@H](C)/C=C/C=C/C=C/1C` (mixture of isomers) [Compound 74], the IC50 is less than 0.316 nM in experiment [1] and 1000 to 10000 nM in experiment [2].

For `CO[C@@H]1C[C@H](C[C@@H](C)[C@@H]2CC(=O)[C@H](C)/C=C(\C)[C@@H](O)[C@@H](OC)C(=O)[C@H](C)C[C@H](C)/C=C/C=C/C=C(\C)C(OCCO)C[C@@H]3CC[C@@H](C)[C@@](O)(O3)C(=O)C(=O)N3CCCC[C@H]3C(=O)O2)CC[C@H]1OCCCN1CC2(COC2)C1` (mixture of isomers) [Compound 78], the results for the IC50 in experiment [1] and in experiment [2] were 0.316 to 3.16 nM and more than 10000 nM, respectively.

Source of the values: patent US11702429B2, “mTORC modulators and uses thereof” (Aeovian Pharmaceuticals, Inc., priority 2019, dated 2023).
